The values that follow come from patent US20250346582A1, “SPLEEN TYROSINE KINASE INHIBITORS AND METHODS OF USE THEREOF” (THE BOARD OF TRUSTEES OF THE UNIVERSITY OF ILLINOIS, priority 2022, published 2025).

The test system of experiment [1] is MV4-11 cells. Briefly: XTT cell proliferation assay, MV4-11 cells. The format is cell-based. The protocol: MV4-11 or HL-60 cells were seeded into a clear-bottom 96-well plate containing varying concentrations of inhibitors in the optimal growth media described above and the mixtures were incubated for 16 h. Cells were then treated with a mixture of XTT-labeling reagents and the electron coupling reagents according to the manufacturer's protocol (Roche). After 4 h, the absorbance values at 475 nm and at 660 nm were simultaneously measured by Synergy™ Neo spectrofluorometer at 25° C. Cells with the growth media was used for background correction.
(Tetrazolium dyes change colour on reduction, which living cells bring about.)

In experiment [2] the test system is phosphorylation of ERK1/2 and STAT3/5. In words: Western blot of phosphorylation in HL60 cells. It counts as cell-based. Conditions: RAS-mutated HL60 cells; 5 μM. The protocol: FIGS. 3A-3D show the inhibition of the signaling activity and proliferation of HL-60 AML cells by Syk-cSH2 inhibitors. […] DMSO was used as a negative control and GAPDH as a gel loading control. […] (c) Inhibition of phosphorylation of Syk, STAT3/5 and ERK1/2 in patient-derived primary AML cells by WC36. Cells were cultured overnight in the presence of CD34+ cytokine supplement. DMSO was used as a negative control. Representative data from one (Patient 1) of four patient samples are shown here. (d) Inhibition of the proliferation of four patient AML cells by WC36 measured by the colony growth assay. The number of colonies after WC36 treatment was normalized to the enumerated colonies after DMSO treatment.
(§1) Cells were seeded at a density of 3.0×10^5 cells/well prior to incubation with inhibitors. Cells were incubated with 1-5 μM of Syk inhibitors overnight and stimulated with different antibodies: IgG2 for AML cells, IgM for Raji B cells, and OKT3 (Biolegend) for Jurkat cells. The cells were lysed in NP40 lysis buffer (50 mM Tris, pH 7.5, 150 mM NaCl, 1 mM EDTA, 1% NP40, 10% glycerol, 10 mM NaF, 10 mM Na3VO4, and the protease inhibitor cocktail) at 4° C. and the cell debris was removed by centrifugation. Samples were analyzed by SDS-PAGE. Proteins were separated and transferred to Immobilon-P polyvinylidene difluoride membrane (Millipore Sigma). The membrane was blocked with 5% bovine serum albumin for 1 h and incubated overnight at 4° C. with various antibodies (1:1000 dilution for all antibodies). After the unbound antibodies were removed by washing with 0.1% Tris buffer saline with 0.1% Tween20, the membranes were incubated with the horseradish peroxidase secondary antibody (1:5000 dilution) for 1 h at room temperature. The membranes were washed three more times with 0.1% Tris buffer saline with 0.1% Tween20 to remove the unbound horseradish peroxidase secondary antibody before imaging. The chemiluminescence intensity of protein bands in the gel was analyzed and documented by the Azure 500Q Imaging System.

Experiment [3] concerns the target T1, ZAP70-cSH2 (Homo sapiens, UniProt P43403).
T1 construct: polyhistidine (N); made in house; host or cells: Escherichia coli BL21 (DE3) pLysS
T1 sequence (P43403 163-254 limits assumed): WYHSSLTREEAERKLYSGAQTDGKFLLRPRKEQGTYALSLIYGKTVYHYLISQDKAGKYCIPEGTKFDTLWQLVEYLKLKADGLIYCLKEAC
Briefly: Fluorescence quenching vesicle binding assay, ZAP70-cSH2. Conditions: for Emax: read-out: Imax (%); for inhibition of ZAP-70-cSH2 binding to POPC/POPS/PIP3/dabsyl-PE vesicles: in words. The method, then: (§2) The membrane-binding assay is based on fluorescence quenching of EGFP fused to a SH2 domain by a dark quencher containing lipid, dabsyl-PE, incorporated in lipid vesicles. The plate reader assay was performed using the Synergy™ Neo spectrofluorometer at 25° C. Nontreated black polystyrene 96-well plates (Corning) were used. Protein (10-50 nM) with the increasing concentration of vesicles with a given lipid composition in 20 mM Tris buffer, pH 7.4, containing 0.16 M NaCl was added to each row of wells and the EGFP fluorescence emission at 516 nm was measured with excitation set at 485 nm. Z′ factor for the assay system was determined as described^74. Imax and IC50 values of inhibitors were determined using the equation, I=Imax/(1+IC50/[I]) where I and [I] indicate % inhibition and inhibitor concentration, respectively. The average and standard deviation values were obtained from triplicate determinations.
(§3) We also optimized a recently developed fluorescence quenching-based lipid-binding assay^47 for high-throughput screening of these molecules for their inhibitory activity against the PIP3-SH2 interaction. Specifically, we expressed SH2 domains as EGFP-tagged proteins and directly quantified their membrane binding by monitoring the quenching of EGFP fluorescence emission intensity by a dark quencher-containing lipid, N-dimethylaminoazo-benzenesulfonyl-phosphatidylethanolamine (dabsyl-PE), incorporated in the vesicles. We then screened for compounds that inhibited binding of Syk-cSH2, BLNK-SH2, and PLCγ2-cSH2, respectively, to 1-palmitoyl-2-oleoyl-PC (POPC)/1-palmitoyl-2-oleoyl-PS (POPS)/PIP3/dabsyl-PE (67:20:3:10) vesicles while eliminating those that inhibit their non-specific binding to anionic POPC/POPS/dabsyl-PE (70:20:10) vesicles. The quality of the screening system was evaluated using 1% dimethylsulfoxide (DMSO) and 20 μM D-myo-inositol-1,3,4,5-tetraphosphate (IP4) as negative and positive controls, respectively. The clear separation of positive and negative control data and the average Z′-factor of 0.7 supported the robustness of our system for high-throughput screen of PIP3-SH2 interaction inhibitors.

The test system of experiment [4] is phosphorylation of Syk, STAT3/5 and ERK1/2. In words: Western blot of IgG2-stimulated phosphorylation in MV4-11 AML cells. It counts as cell-based. Particulars: MV4-11 cells, 5 μM overnight. The protocol: FIGS. 2A-2D show the inhibition of the signaling activity and proliferation of MV4-11 AML cells by Syk-cSH2 inhibitors. […] GAPDH was used as a gel loading control. […] Imax and IC50 values were determined by non-linear least-squares analysis of data using the equation: I=Imax/(1+IC50/[inhibitor]) where I indicates % inhibition at a given inhibitor concentration ([inhibitor]). (c) Inhibition of IgG2-stimulated phosphorylation of Syk, STAT3/STAT5 and ERK1/2 in entospletinib-resistant MV-4-11 cells by 5 μM of WC35, WC36, and WC38.
as §1

The target of experiment [5] is T2, BLNK-SH2 (Homo sapiens, UniProt Q8WV28).
T2 construct: All SH2 domain constructs were cloned into the pRSET-B vector; polyhistidine (N); made in house; host or cells: Escherichia coli BL21 (DE3) pLysS
T2 sequence (Q8WV28 346-453 limits assumed): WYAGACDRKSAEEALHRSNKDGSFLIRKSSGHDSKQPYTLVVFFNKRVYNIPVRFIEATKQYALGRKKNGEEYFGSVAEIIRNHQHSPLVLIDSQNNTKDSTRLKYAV
Briefly: Fluorescence quenching vesicle binding assay, BLNK-SH2. Conditions: Table 4; POPC/POPS/PIP3/dabsyl-PE (67:20:3:10) vesicles (40 μM); read-out: Imax (%). The method, then:
as §2, §3

In experiment [6] the test system is BCR signaling axis (Syk-BLNK-PLCγ2). In words: Western blot of BCR signaling axis in Raji B lymphocytes. Conditions: Raji B cells. The format is cell-based. The method, then:
as §1
Background: In western blotting, separated proteins are transferred to a membrane and probed.

The target of experiment [7] is T3, Syk-cSH2 E164D (Homo sapiens, UniProt P43405, E164D).
T3 construct: polyhistidine (N); made in house; host or cells: Escherichia coli BL21 (DE3) pLysS
In words: Fluorescence quenching vesicle binding assay, Syk-cSH2 E164D mutant. Particulars: up to 5 μM; POPC/POPS/PIP3/dabsyl-PE vesicles. The protocol: as §2

The mark [8] stands for this setting: Table 4, POPC/POPS/PIP3/dabsyl-PE (67:20:3:10) vesicles (40 μM).

`[N-]=[N+]=C(C(=O)OC1CCCCC1)C(Nc1ncccn1)c1ccco1` (racemic) [WC35, Cyclohexyl 2-diazo-3-(furan-2-yl)-3-(pyrimidin-2-ylamino)propanoate]: the “inhibition of cell proliferation (XTT assay)” value in experiment [1] is “modestly more active than WC38 and entospletinib”. Also, in experiment [2], the “inhibition of phosphorylation of ERK1/2 and STAT3/5” value (shortened to “inhibition … of ERK1/2 and STAT3/5”) is on record as “less active then WC36”. In addition, the Emax in experiment [3] (setting [8]) is < 20%; in experiment [5] it was < 10%. Besides, in experiment [3], the “inhibition of ZAP-70-cSH2 binding to POPC/POPS/PIP3/dabsyl-PE vesicles” value is given as “did not inhibit binding”. For the same compound, the “inhibition of phosphorylation of Syk, STAT3/5 and ERK1/2” value (from here on “inhibition of phosphorylation of Syk”) in experiment [4] is “less active than entospletinib for both Syk and ERK1/2 inhibition”. In addition, in experiment [6], the “effect on phosphorylation of BCR signaling proteins (Syk, BLNK, PLCγ2)” value (“effect on phosphorylation” for short) was “effectively suppressed phosphorylation of all BCR signaling proteins”.
Take `[N-]=[N+]=C(C(=O)OC1CCCCC1)C(Nc1ncccn1)c1c[nH]c2ccccc12` (racemic) [WC36, Cyclohexyl 2-diazo-3-(1H-indol-3-yl)-3-(pyrimidin-2-ylamino)propanoate]: the “inhibition of cell proliferation (XTT assay)” value in experiment [1] was “modestly more active than WC38 and entospletinib”. Moreover, the “inhibition … of ERK1/2 and STAT3/5” value in experiment [2] is “potent against phosphorylation of ERK1/2 and STAT3”. For the same compound, the Emax in experiment [3] (setting [8]) and in experiment [5] was < 10% throughout. The “inhibition of ZAP-70-cSH2 binding to POPC/POPS/PIP3/dabsyl-PE vesicles” value in experiment [3] was “did not inhibit binding”. Also, the “inhibition of membrane binding of Syk-cSH2 E164D” value in experiment [7] is “not inhibited”. Moreover, the “inhibition of phosphorylation of Syk” value in experiment [4] was “suppressed phosphorylation of Syk and STAT3/5 as potently as entospletinib but were modestly less active than entospletinib for ERK1/2 inhibition”. For the same compound, the “effect on phosphorylation” value in experiment [6] is reported as “effectively suppressed phosphorylation of all BCR signaling proteins”.
Regarding `[N-]=[N+]=C(C(=O)OC1CCCCC1)C(Nc1ncccn1)c1ccc[nH]1` (racemic) [WC38, Cyclohexyl 2-diazo-3-(pyrimidin-2-ylamino)-3-(1H-pyrrol-2-yl)propanoate], the “inhibition … of ERK1/2 and STAT3/5” value in experiment [2] is given as “less active then WC36”. Moreover, in experiment [3] (setting [8]), the concentration for half-maximal inhibition (IC50) worked out at 340 ± 20 nM and the Emax was 30 ± 5%. In addition, the “inhibition of ZAP-70-cSH2 binding to POPC/POPS/PIP3/dabsyl-PE vesicles” value in experiment [3] was “did not inhibit binding”. In addition, the “inhibition of phosphorylation of Syk” value in experiment [4] was “suppressed phosphorylation of Syk and STAT3/5 as potently as entospletinib but were modestly less active than entospletinib for ERK1/2 inhibition”. Moreover, in experiment [5], the Emax was < 10%. For the same compound, the “effect on phosphorylation” value in experiment [6] was “effectively suppressed phosphorylation of all BCR signaling proteins”.

The IC50 is the concentration that gives 50% inhibition.
